Experimental data from patent US7544707B2, “Bicyclic derivatives as PPAR modulators” (Eli Lilly and Company, priority 2003, dated 2009).

A melting point of 132 to 134 °C was found for `Cc1cc(SCc2cccc3c2cnn3-c2ccc(C(F)(F)F)cc2)ccc1OCC(=O)O` [Example 30, 2-Methyl-4-[1-(4-trifluoromethylphenyl)-1H-indazol-4-ylmethylsulfanyl]phenoxyacetic Acid] in this work. A melting point of 156 to 158 °C was found for `Cc1cc(OC(C)c2ccc3cn(-c4ccc(C(F)(F)F)cc4)nc3c2)ccc1OC(C)(C)C(=O)O` (racemic) [Example 57, (+/−)-2-Methyl-2-(2-methyl-4-{1-[2-(4-trifluoromethylphenyl)-2H-indazol-6-yl]ethoxy}phenoxy)propionic Acid] in this work. A melting point of 118 to 121 °C was found for `Cc1cc(SCc2cccc3cnn(-c4ccc(C(F)(F)F)cc4)c23)ccc1OCC(=O)O` [Example 34, 2-Methyl-4-[1-(4-trifluoromethylphenyl)-1H-indazol-7-ylmethylsulfanyl]phenoxyacetic Acid] in this work. A melting point of 79 to 81 °C was found for `Cc1cc(SCc2cccc3cn(-c4ccc(C(F)(F)F)cc4)nc23)ccc1OCC(=O)O` [Example 1, 2-Methyl-4-[2-(4-trifluoromethylphenyl)-2H-indazol-7-ylmethylsulfanyl]phenoxyacetic Acid] in this work. A melting point of 118 to 120 °C was found for `Cc1cc(SC(C)(C)c2cccc3cn(-c4ccc(C(F)(F)F)cc4)nc23)ccc1OCC(=O)O` [Example 14, 2-Methyl-4-{1-methyl-1-[2-(4-trifluoromethylphenyl)-2H-indazol-7-yl]ethylsulfanyl}phenoxyacetic Acid] in this work. A melting point of 154 to 158 °C was found for `Cc1cc(SCc2cccc3cnn(-c4ccc(C(F)(F)F)cc4)c23)ccc1OC(C)(C)C(=O)O` [Example 98, 2-Methyl-2-{2-methyl-4-[1-(4-trifluoromethylphenyl)-1H-indazol-7-ylmethylsulfanyl]phenoxy}propionic Acid] in this work. A melting point of 125 to 128 °C was found for `CC(C)(Oc1ccc(SCc2cccc3cnn(-c4ccc(C(F)(F)F)cc4)c23)cc1)C(=O)O` [Example 99, 2-Methyl-2-{4-[1-(4-trifluoromethylphenyl)-1H-indazol-7-ylmethylsulfanyl]phenoxy}propionic Acid] in this work. A melting point of 164 to 166 °C was found for `Cc1cc(OCc2ccc3nn(-c4ccc(C(F)(F)F)cc4)cc3c2)ccc1OC(C)(C)C(=O)O` [Example 61, 2-Methyl-2-{2-methyl-4-[2-(4-trifluoromethylphenyl)-2H-indazol-5-ylmethoxy]phenoxy}propionic Acid] in this work. A melting point of 137 to 139 °C was found for `Cc1cc(SCCc2cccc3cn(-c4ccc(C(F)(F)F)cc4)nc23)ccc1OCC(=O)O` [Example 46, (2-Methyl-4-{2-[2-(4-trifluoromethylphenyl)-2H-indazol-7-yl]ethylsulfanyl}phenoxy)acetic Acid] in this work. A melting point of 61 to 63 °C was found for `CCc1cc(OC(C)c2cccc3cn(-c4ccc(C(F)(F)F)cc4)nc23)ccc1CCC(=O)O` (racemic) [Example 13] in this work. A melting point of 140 to 145 °C was found for `Cc1cc(OC(c2ccccc2)c2cccc3c2cnn3-c2ccc(C(F)(F)F)cc2)ccc1OC(C)(C)C(=O)O` (racemic) [Example 91, (+/−)-2-Methyl-2-(2-methyl-4-{phenyl-[1-(4-trifluoromethylphenyl)-1H-indazol-4-yl]methoxy}phenoxy)propionic Acid] in this work. A melting point of 139 to 141 °C was found for `Cc1cc(OC(C)c2cccc3cn(-c4ccc(C(F)(F)F)cc4)nc23)ccc1OC(C)(C)C(=O)O` (racemic) [Example 40, (+/−)-2-Methyl-2-(2-methyl-4-{1-[2-(4-trifluoromethylphenyl)-2H-indazol-7-yl]ethoxy}phenoxy)propionic Acid] in this work. A melting point of 124 to 126 °C was found for `Cc1cc(OCc2cccc3cnn(-c4ccc(C(F)(F)F)cc4)c23)ccc1OC(C)(C)C(=O)O` [Example 96, 2-Methyl-2-{2-methyl-4-[1-(4-trifluoromethylphenyl)-1H-indazol-7-ylmethoxy]phenoxy}propionic Acid] in this work. A melting point of 66 to 68 °C was found for `Cc1cc(OC(C)c2cccc3cn(-c4ccc(C(F)(F)F)cc4)nc23)ccc1CCC(=O)O` (racemic) [Example 12, (+/−)-3-(2-Methyl-4{1-[2-(4-trifluoromethylphenyl)-2H-indazol-7yl]ethoxy}phenyl)propionic Acid] in this work.
